# Test system: G. duodenalis BRIS/91/HEPU/1279
# Assay: Primary Giardia screen at 10 µM (live-cell imaging, automated counting)
# Type: cell-based, Giardia duodenalis
# Conditions: 24 h
# Summary of the method: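 Singlicate, 10 μM final, 0.2% DMSO; sealed chambers, 3% O2/5% CO2/N2. Counts by live-cell imaging at 24 h and 48 h. % growth vs vehicle, media background subtracted; Z' per plate.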
row,SMILES,Average % Inhibition 24h [%]
1,CCC1Cn2c(C(=O)NCCN(C)C3CCCCC3)cc3cccc(c32)O1 (centres unmarked) [SN00788158],13.9
2,CCc1nc(-c2cc(S(=O)(=O)N(C)c3cccc(C)c3)c(C)s2)no1 [SN00789104],14.2

# Same assay, conditions: 24 h, first singlicate assay
row,SMILES,% Inhibition n=1 24h [%]
1,CCC1Cn2c(C(=O)NCCN(C)C3CCCCC3)cc3cccc(c32)O1 (centres unmarked) [SN00788158],11.2
2,CCc1nc(-c2cc(S(=O)(=O)N(C)c3cccc(C)c3)c(C)s2)no1 [SN00789104],28.4

# Same assay, conditions: 24 h, re-assessment
row,SMILES,% Inhibition n=2 24h [%]
1,CCC1Cn2c(C(=O)NCCN(C)C3CCCCC3)cc3cccc(c32)O1 (centres unmarked) [SN00788158],16.5
2,CCc1nc(-c2cc(S(=O)(=O)N(C)c3cccc(C)c3)c(C)s2)no1 [SN00789104],0.0

# Same assay, conditions: 48 h
row,SMILES,Average % Inhibition 48h [%]
1,CCC1Cn2c(C(=O)NCCN(C)C3CCCCC3)cc3cccc(c32)O1 (centres unmarked) [SN00788158],53.7
2,CCc1nc(-c2cc(S(=O)(=O)N(C)c3cccc(C)c3)c(C)s2)no1 [SN00789104],30.8

# Same assay, conditions: 48 h, first singlicate assay
row,SMILES,% Inhibition n=1 48h [%]
1,COc1ccc(NC(=O)N2CCN(c3cc(C)nc(N4CCOCC4)n3)CC2)cc1 [SN00786878],44.4
2,C=CCn1c(C)c(CC(=O)Nc2cc(F)ccc2C)c(=O)n2nc(-c3ccccc3)nc12 [SN00786890],40.6
3,O=C(Nc1ccccc1)c1cc(-c2cccs2)n(C2CCS(=O)(=O)C2)n1 (centres unmarked) [SN00786904],1.7
4,O=C(c1cccc(Br)c1)N1CCC(c2nc3ccccc3[nH]2)CC1 [SN00786922],0.0
5,COc1ccccc1OC(C)C(=O)N1N=C2CCCCC2C1(O)C(F)(F)F (centres unmarked) [SN00786959],13.1
6,CCn1nnc(NCc2ccc(-c3ccccc3)cc2)n1 [SN00786962],14.2
7,Cc1ccc2nc(-c3ccc(C)c(NC(=O)c4cccnc4)c3)[nH]c2c1 [SN00787045],8.2
8,COc1ccccc1CCC(=O)N1CCN(c2ncnc3[nH]cnc23)CC1 [SN00787062],0.0
9,Cn1nc(C(=O)NCCCN2CCN(c3ccccc3)CC2)c2c1-c1ccccc1OC2 [SN00787244],0.0
10,O=C(Nc1nnc(S(=O)(=O)N2CCc3ccccc32)s1)c1ccccc1 [SN00787260],37.8
11,Cn1c(C(=O)NCc2ccc(F)cc2)cc2c(=O)n3ccccc3nc21 [SN00787284],0.0
12,CC1(C(=O)NCc2ccc(F)cc2)Cn2nc(-c3ccco3)cc2C(=O)N1Cc1ccccc1 (centres unmarked) [SN00787370],13.6
13,COc1ccc(N2C(=O)c3cc(-c4ccco4)nn3CC2(C)C(=O)NC(C)(C)C)cc1 (centres unmarked) [SN00787372],16.8
14,O=C(NCc1cccc(F)c1)C1CCCN(c2nc3ccccc3n3cccc23)C1 (centres unmarked) [SN00787408],0.0
15,CCn1cc2c(n1)-c1c(oc(C(=O)Nc3ccc(F)cc3)c1C)CC2 [SN00787412],6.9
16,Cc1c(C(=O)NCCCN2CCOCC2)oc2c1-c1nn(Cc3ccc(Cl)cc3)cc1CC2 [SN00787421],1.0
17,CC1(C(=O)NC2CCCCC2)Cn2c(cc3ccccc32)C(=O)N1Cc1ccco1 (centres unmarked) [SN00787436],0.0
18,O=C(Nc1cc(Cl)ccc1O)c1cc(-c2ccc(F)cc2)no1 [SN00787460],3.6
19,CC(C(=O)NC1CCCCCC1)n1c(=O)c2cccn2c2cccnc21 (centres unmarked) [SN00787599],8.7
20,O=C([C@H]1C[C@H]2CCCN2[C@@]12C(=O)Nc1ccccc12)N1CCN(c2ccccc2)CC1 [SN00787657],16.0
21,CC1CC(C)CN(CCCNC(=O)C2CC3CCCN3C23C(=O)Nc2ccccc23)C1 (centres unmarked) [SN00787674],38.8
22,CC1(C(=O)NC2CCCC2)Cn2c(ccc2-c2ccco2)C(=O)N1c1cccc(F)c1 (centres unmarked) [SN00787693],11.7
23,CC1(C(=O)NCc2ccccc2)Cn2c(ccc2-c2ccco2)C(=O)N1CCc1ccco1 (centres unmarked) [SN00787709],0.0
24,COc1ccc(-c2noc(CC(=O)N3CCN(c4ccccn4)CC3)n2)cc1 [SN00787724],23.4
25,Cc1ccc(-n2nnc(-c3nc(-c4ccc5c(c4)OCO5)no3)c2N)cc1 [SN00787754],0.0
26,CCCn1cc(S(=O)(=O)c2ccc(OC)cc2)c(=O)c2cc(F)c(N3CCC(C)CC3)cc21 [SN00787795],0.0

row,SMILES,% Inhibition n=1 48h [%]
1,CCCn1cc(S(=O)(=O)c2ccc(Cl)cc2)c(=O)c2cc(F)c(N3CCOCC3)cc21 [SN00787800],0.0
2,COc1ccccc1N1CCN(C(=O)c2cc(C3CC3)n[nH]2)CC1 [SN00787811],0.0
3,CCCCN(CC)CCNC(=O)C1=C(C)C(=O)OC12CCN(CC)CC2 [SN00787839],0.0
4,CC(=O)N1CCC2(CC1)OC(=O)C(C)=C2C(=O)NC1CC1 [SN00787857],0.0
5,CC1(C(=O)NC2CCCCCCC2)CN(S(C)(=O)=O)CC(=O)N1c1ccc(F)cc1 (centres unmarked) [SN00787900],11.9
6,CC1Cc2cc(S(=O)(=O)N3CCn4c3nc3ccccc34)ccc2N1C(=O)C1CCC1 (centres unmarked) [SN00788031],10.8
7,CC1CC(C)CN(C(=O)Cn2cnc3c(nc4n3CCCCC4)c2=O)C1 (centres unmarked) [SN00788055],0.0
8,Cc1ccc(NC(=O)Cn2nnc(-c3nc(-c4ccccc4)no3)c2N)cc1C [SN00788081],2.5
9,Cc1ccc(NC(=O)Cn2nnc(-c3nc(-c4ccncc4)no3)c2N)cc1 [SN00788097],7.5
10,CCC1Cn2c(C(=O)NCCN(C)C3CCCCC3)cc3cccc(c32)O1 (centres unmarked) [SN00788158],54.5
11,COc1cccc(Nc2nc(N3CCN(c4ccccc4)CC3)nc3c2cnn3C)c1 [SN00788187],5.8
12,COc1ccc(-c2cc(C(=O)N(C)Cc3ccco3)[nH]n2)cc1 [SN00788220],44.3
13,CCN(Cc1ccccc1)C(=O)c1cc(-c2ccccc2)n[nH]1 [SN00788230],36.1
14,CN1C(=O)c2cc(C(=O)NCCCc3ccccc3)nn2CC1(C)C(=O)NC1CCCC1 (centres unmarked) [SN00788236],0.6
15,O=C(NCCCN1CCN(c2ccccc2)CC1)c1noc2c1CCCCC2 [SN00788368],9.7
16,Cc1oc2ncn(C(C)c3ccccc3)c(=O)c2c1C(=O)Nc1ccc(S(N)(=O)=O)nc1 (centres unmarked) [SN00788415],0.0
17,Cc1ccccc1NC(=O)c1c(C)oc2ncnc(N3CCCCC3)c12 [SN00788425],15.9
18,Cc1nc(N2CCOCC2)c2c(C(=O)N3CCCC3)c(C)oc2n1 [SN00788445],0.0
19,CCCCN(CCCC)S(=O)(=O)c1ccc2c(c1)CCCC(=O)N2 [SN00788526],27.2
20,O=C1CCCc2cc(S(=O)(=O)N3CCN(c4ccccc4)CC3)ccc2N1 [SN00788529],19.1
21,Cc1noc2ncnc(N3CCCC(C(=O)NC4CCCCCC4)C3)c12 (centres unmarked) [SN00788598],0.0
22,Cc1noc2ncnc(N3CCCC(C(=O)N4CCCCCC4)C3)c12 (centres unmarked) [SN00788609],0.0
23,COc1cccc(C(=O)n2nc(-c3cccnc3)nc2NCc2ccc(C)cc2)c1 [SN00788624],24.5
24,CC(=O)c1ccc(NC(=O)C2CC(=O)N=C(N3CCN(Cc4ccc5c(c4)OCO5)CC3)N2)cc1 (centres unmarked) [SN00788633],6.8
25,Cn1c(=O)c2c(-c3ccccc3)c(Nc3ccccc3)oc2n(C)c1=O [SN00788641],9.4
26,COc1cc(-c2c(Nc3ccccc3)oc3c2c(=O)n(C)c(=O)n3C)cc(OC)c1OC [SN00788648],0.0

row,SMILES,% Inhibition n=1 48h [%]
1,COc1cc2ccccc2cc1C(=O)Nc1nc2c(s1)CN(Cc1ccccc1)CC2 [SN00788706],9.9
2,Cc1cccc(N(C)c2ccc3cc(S(=O)(=O)N4CCCC4)ccc3n2)c1 [SN00788730],7.2
3,Cc1ccsc1CCNC(=O)c1cnn2c(=O)c3c(n(C)c12)CCN(Cc1ccccc1)C3 [SN00788935],17.0
4,Cc1ccc(-c2nc3ccccc3n2Cc2cccc(F)c2)o1 [SN00788939],16.3
5,O=C(NCCC1=CCCCC1)c1cccn1-c1cccnc1 [SN00788993],14.0
6,CC(=O)c1ccc(Nc2ncnc3c2c(C)c(C)n3-c2ccccc2)cc1 [SN00789011],48.7
7,Cc1c(C)n(-c2ccccc2)c2ncnc(N3CCC(C)CC3)c12 [SN00789013],35.2
8,Cc1ccc(S(=O)(=O)n2ccn(C(=O)c3ccccc3C)c2=O)cc1 [SN00789027],0.0
9,COc1ccccc1C(=O)n1ccn(S(=O)(=O)c2ccc(C)cc2)c1=O [SN00789029],6.3
10,Cc1ccc(Cl)cc1NC(=O)C1CC2CSCN2C12C(=O)Nc1ccccc12 (centres unmarked) [SN00789076],17.2
11,CCc1nc(-c2cc(S(=O)(=O)N(C)c3cccc(C)c3)c(C)s2)no1 [SN00789104],48.8
12,Cc1noc(-c2c(C)sc(C)c2S(=O)(=O)NCc2ccccc2)c1C [SN00789144],30.5
13,COc1ccc(-n2ccn(CC(=O)Nc3ccc(OC)cc3OC)c2=O)cc1 [SN00789162],0.0
14,Cc1ccccc1S(=O)(=O)N1CCC2(CC1)Nc1ccc(Cl)cc1-n1cccc12 [SN00789223],20.1
15,COc1ccc2c(c1)NC1(CCN(C(=O)Cc3ccc(F)cc3)CC1)c1cccn1-2 [SN00789241],5.9
16,CCc1nnc(-c2cc3ccccc3n2CC(=O)N2CCCc3ccccc32)o1 [SN00789262],0.0
17,COC(=O)c1ccc(Cn2c(-c3nnc(C(C)C)o3)cc3ccccc32)cc1 [SN00789282],4.4
18,CCn1nnc2cc(C(=O)N(C)CC(=O)NCc3cccc(C)c3)ccc21 [SN00789328],14.4
19,O=C1COc2ccc(Cl)cc2N1Cc1nc(Cn2cnc3ccccc3c2=O)no1 [SN00789336],0.0
20,CCOc1cccc(CC(=O)Nc2ccc3c(c2)C(=O)N(C)C2=NCCN23)c1OCC [SN00789358],35.6
21,Cc1cc2c(cc1C)N(CC(=O)NCc1cccs1)C(=O)C1CCCC1=N2 (centres unmarked) [SN00789389],11.1
22,CSc1ccc(-c2noc(-c3ccc4c(=O)n(Cc5ccccc5)c(=O)[nH]c4c3)n2)cc1 [SN00789400],6.5
23,CCCCn1c(=O)[nH]c2cc(-c3nc(-c4ccc(F)cc4)no3)ccc2c1=O [SN00789403],0.3
24,COc1ccc(Cn2c(=O)c3nccnc3n(Cc3cccc(C)c3)c2=O)cc1 [SN00789526],0.0

# Same assay, conditions: 48 h, re-assessment
row,SMILES,% Inhibition n=2 48h [%]
1,CCC1Cn2c(C(=O)NCCN(C)C3CCCCC3)cc3cccc(c32)O1 (centres unmarked) [SN00788158],52.9
2,CCc1nc(-c2cc(S(=O)(=O)N(C)c3cccc(C)c3)c(C)s2)no1 [SN00789104],12.8

# Source: article PMC9775191, “A Subset Screen of the Compounds Australia Scaffold Library Identifies 7-Acylaminodibenzoxazepinones as Potent and Selective Hits for Anti-Giardia Drug Discovery” (Biomedicines, 2022)
